{"source": "paper PMC8151276", "about": "“An Integrated Approach toward NanoBRET Tracers for Analysis of GPCR Ligand Engagement” (Molecules, 2021)", "type_in_all_cases": "binding", "key": {"HRH1": {"biological_target": "T1, HRH1 (Homo sapiens, UniProt P35367)", "T1 construct": "purchased Promega (in-house HiBiT-GPCR construct library, NanoBRET)", "T1 sequence (P35367 whole entry)": "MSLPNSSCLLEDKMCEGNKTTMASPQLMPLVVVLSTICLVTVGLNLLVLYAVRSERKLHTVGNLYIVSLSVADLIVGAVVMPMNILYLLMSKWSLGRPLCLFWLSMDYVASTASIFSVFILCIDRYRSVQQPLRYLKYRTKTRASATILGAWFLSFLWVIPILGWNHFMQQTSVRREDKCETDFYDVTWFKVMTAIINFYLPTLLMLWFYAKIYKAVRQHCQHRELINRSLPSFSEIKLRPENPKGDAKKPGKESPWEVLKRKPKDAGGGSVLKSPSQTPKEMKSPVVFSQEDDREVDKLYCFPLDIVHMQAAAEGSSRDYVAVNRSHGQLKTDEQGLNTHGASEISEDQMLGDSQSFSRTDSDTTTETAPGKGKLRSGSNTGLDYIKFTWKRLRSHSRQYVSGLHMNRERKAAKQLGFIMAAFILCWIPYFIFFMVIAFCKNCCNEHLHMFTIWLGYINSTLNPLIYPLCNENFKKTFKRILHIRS", "experiment": "NanoBRET screen HiBiT-HRH1 in HEK293"}, "FZD4": {"biological_target": "T2, FZD4 (Homo sapiens, UniProt Q9ULV1)", "T2 construct": "purchased Promega (in-house HiBiT-GPCR construct library, NanoBRET)", "T2 sequence (Q9ULV1 37-537)": "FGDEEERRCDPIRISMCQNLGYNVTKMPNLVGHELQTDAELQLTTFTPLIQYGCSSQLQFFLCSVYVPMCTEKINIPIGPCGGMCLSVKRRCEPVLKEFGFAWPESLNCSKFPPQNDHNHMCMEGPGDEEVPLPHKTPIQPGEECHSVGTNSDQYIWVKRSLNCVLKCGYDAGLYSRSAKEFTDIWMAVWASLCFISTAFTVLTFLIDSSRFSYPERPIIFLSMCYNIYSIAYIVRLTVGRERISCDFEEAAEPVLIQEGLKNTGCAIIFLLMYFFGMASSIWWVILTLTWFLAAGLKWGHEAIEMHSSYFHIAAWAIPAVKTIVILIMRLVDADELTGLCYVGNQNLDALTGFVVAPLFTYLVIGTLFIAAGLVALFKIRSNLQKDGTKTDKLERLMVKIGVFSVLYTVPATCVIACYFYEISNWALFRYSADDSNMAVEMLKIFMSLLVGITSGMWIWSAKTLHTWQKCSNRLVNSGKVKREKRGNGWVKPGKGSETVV", "experiment": "NanoBRET screen HiBiT-FZD4 in HEK293", "procedure": "Each tracer candidate was screened across the entire library of HiBiT-GPCR constructs using NanoBRET as the detection modality. As depicted in Figure 4A, the specificity of interactions was evaluated through decrease in BRET due to competitive displacement of a bound tracer by excess parental compound. Each tracer was analyzed for binding to each HiBiT-GPCR fusion in the absence and in the presence of competing parental compound. Briefly, HEK293 cells were transfected with HiBiT-GPCR constructs diluted into promoterless DNA to reduce expression and maximize translocation to the cell surface. Each tracer candidate was then screened at concentrations of 1 μM and 0.1 μM across cells expressing these fusions. Cells were treated for 1.5 h with tracer either alone or in the presence of 20 μM competing parental compound (i.e., control). BRET was measured upon addition of purified LgBiT and subsequent complementation with HiBiT genetically fused to a GPCR. The specificity of interactions was assessed through a decrease in BRET signal due to competitive displacement of the bound tracer. To further gauge the robustness of these interactions, the fold response over the control (i.e., BRETtracer/BRETcontrol) was calculated. We chose a 1.5-fold response, which translates to ≥7-fold signal over noise as the minimal threshold required to score an interaction as positive. […]. Below we highlight the screening results obtained for our exemplary fluorescent tracers based on Clozapine, Amitriptyline and AZD1283.\nHiBiT-GPCR DNA constructs were diluted in 10 mM Tris pH 8 to a final concentration of 0.01 μg/μL, arrayed in 96-well plates and stored at −20 °C. For transfection, HEK293 cells were suspended in Opti-MEM (without phenol red) supplemented with 2% fetal bovine serum (Seradigm) and 100 units/mL penicillin–streptomycin (Gibco) at a final concentration of 220,000 cells/mL and dispensed into white 96-well plates at 90 μL/well. Subsequent transfections and screens were carried using an Agilent Bravo Automated Liquid Handling Platform. First, the 96-well HiBiT DNA arrays were diluted 25-fold in Opti-MEM (without serum or phenol red) to a final concentration of 0.0004 μg/μL and 20 μL of the diluted DNAs were transferred into new 96-well plates. Next, promoterless carrier DNA (1 μg/μL) was diluted 25-fold (0.04 μg/μL) and then dispensed into the diluted arrays at 20 μL/well. Following brief mixing, Viafect transfection reagent (Promega) diluted 16-fold into Opti-MEM was dispensed into the plates at 40 μL/well. After mixing by pipetting, plates were incubated for 10 min on the pipetting station deck. The DNA-transfection reagent complexes were then added to plates containing cells. To facilitate the screen, 10 μL of DNA-transfection reagent complexes were added in duplicates to the top 4 and bottom 4 rows, resulting in two identical 48-well arrays per plate. Plates with transfected cells were incubated for 18–20 h at 37 °C/5% CO2. A screen of each tracer across the entire library using two different concentrations requires duplicate plates of transfected cells. Depending on the number of tracers being screened, transfections can be scaled up using the same ratios. The next day, for each tracer, four 20× screening solutions in tracer dilution buffer (Promega) were prepared: two duplicates at final concentration of 20 μM and two duplicates at a final concentration of 2 μM. A competing unmodified compound was added to one of each duplicate at a final concentration of 400 μM. The four resulting solutions were diluted 4-fold in Opti-MEM without serum or phenol red to generate 5× solutions (5 µM and 0.5 µM tracer +/− 100 μM competing compound). To screen the library, a BioTek MultiFlo FX liquid dispenser was used to dispense 22.5 µL of tracer solution to the top 4 rows and 22.5 µL tracer + competing compound solution to the 4 bottom rows. Plates were briefly mixed on an orbital shaker and incubated for 1.5 h at room temperature. […]"}, "CHRM1": {"biological_target": "T3, CHRM1 (Homo sapiens, UniProt P11229)", "T3 construct": "purchased Promega (in-house HiBiT-GPCR construct library, NanoBRET)", "T3 sequence (P11229 1-460)": "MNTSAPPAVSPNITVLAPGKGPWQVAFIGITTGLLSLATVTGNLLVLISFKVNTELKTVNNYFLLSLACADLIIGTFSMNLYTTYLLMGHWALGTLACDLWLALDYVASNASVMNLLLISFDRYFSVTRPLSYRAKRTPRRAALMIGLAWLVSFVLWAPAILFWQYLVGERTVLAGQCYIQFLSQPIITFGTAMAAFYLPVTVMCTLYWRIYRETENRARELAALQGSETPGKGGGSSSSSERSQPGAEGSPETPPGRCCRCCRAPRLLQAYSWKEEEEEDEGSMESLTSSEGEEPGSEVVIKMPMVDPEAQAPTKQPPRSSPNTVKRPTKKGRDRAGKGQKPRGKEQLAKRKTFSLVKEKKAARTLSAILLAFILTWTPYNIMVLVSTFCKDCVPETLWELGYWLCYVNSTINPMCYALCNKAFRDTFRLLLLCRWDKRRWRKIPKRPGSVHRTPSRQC", "experiment": "NanoBRET screen HiBiT-CHRM1 in HEK293"}, "CHRM3": {"biological_target": "T4, CHRM3 (Homo sapiens, UniProt P20309)", "T4 construct": "purchased Promega (in-house HiBiT-GPCR construct library, NanoBRET)", "T4 sequence (P20309 whole entry)": "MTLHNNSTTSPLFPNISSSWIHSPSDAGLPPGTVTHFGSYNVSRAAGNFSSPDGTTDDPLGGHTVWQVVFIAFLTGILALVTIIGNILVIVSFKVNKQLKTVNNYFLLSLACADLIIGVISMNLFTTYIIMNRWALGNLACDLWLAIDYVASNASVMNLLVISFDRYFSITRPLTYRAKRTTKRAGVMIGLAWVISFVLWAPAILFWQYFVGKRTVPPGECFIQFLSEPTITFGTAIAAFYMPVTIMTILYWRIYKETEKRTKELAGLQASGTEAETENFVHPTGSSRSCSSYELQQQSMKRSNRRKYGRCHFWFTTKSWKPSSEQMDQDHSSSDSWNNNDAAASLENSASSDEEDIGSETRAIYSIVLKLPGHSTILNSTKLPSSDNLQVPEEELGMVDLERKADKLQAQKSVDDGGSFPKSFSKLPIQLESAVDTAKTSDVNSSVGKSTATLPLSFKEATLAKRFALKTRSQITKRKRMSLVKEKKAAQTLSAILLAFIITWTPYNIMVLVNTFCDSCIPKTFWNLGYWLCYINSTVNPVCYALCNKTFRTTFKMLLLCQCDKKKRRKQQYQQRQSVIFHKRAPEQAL", "experiment": "NanoBRET screen HiBiT-CHRM3 in HEK293"}}, "data": [{"smiles": "CCOC(=O)c1cc(C#N)c(N2CCC(C(=O)NS(=O)(=O)Cc3ccccc3/C=C/C(=O)NCCNC(=O)CCc3ccc4n3[B-](F)(F)[N+]3=C(c5ccc[nH]5)C=CC3=C4)CC2)nc1C", "note": "[AZD1283-1-NB590]", "values": [{"measurement": "NanoBRET Fold Response", "setting": "HRH1; HRH1, 0.1μM", "result": 1.05}, {"measurement": "NanoBRET Fold Response", "setting": "HRH1; HRH1, 1μM", "result": 0.92}, {"measurement": "NanoBRET Fold Response", "setting": "FZD4; FZD4, 0.1μM", "result": 1.03}, {"measurement": "NanoBRET Fold Response", "setting": "FZD4; FZD4, 1μM", "result": 1.03}, {"measurement": "NanoBRET Fold Response", "setting": "CHRM1; CHRM1, 0.1μM", "result": 1.01}, {"measurement": "NanoBRET Fold Response", "setting": "CHRM1; CHRM1, 1μM", "result": 1.04}, {"measurement": "NanoBRET Fold Response", "setting": "CHRM3; CHRM3, 0.1μM", "result": 1.07}, {"measurement": "NanoBRET Fold Response", "setting": "CHRM3; CHRM3, 1μM", "result": 1.09}]}, {"smiles": "N#CN=C(NCCCOc1cccc(CN2CCCCC2)c1)NCCNC(=O)CCOCCOCCOCCOCCNC(=O)CCc1ccc2n1[B-](F)(F)[N+]1=C(c3ccc[nH]3)C=CC1=C2", "note": "[Aminopotentidine-2-NB590]", "values": [{"measurement": "NanoBRET Fold Response", "setting": "HRH1; HRH1, tracer 0.1μM", "result": 0.91}, {"measurement": "NanoBRET Fold Response", "setting": "HRH1; HRH1, tracer 1μM", "result": 1.08}, {"measurement": "NanoBRET Fold Response", "setting": "FZD4; FZD4, tracer 0.1μM", "result": 0.98}, {"measurement": "NanoBRET Fold Response", "setting": "FZD4; FZD4, tracer 1μM", "result": 1.07}, {"measurement": "NanoBRET Fold Response", "setting": "CHRM1; CHRM1, tracer 0.1μM", "result": 0.98}, {"measurement": "NanoBRET Fold Response", "setting": "CHRM1; CHRM1, tracer 1μM", "result": 1.35}, {"measurement": "NanoBRET Fold Response", "setting": "CHRM3; CHRM3, tracer 0.1μM", "result": 0.99}, {"measurement": "NanoBRET Fold Response", "setting": "CHRM3; CHRM3, tracer 1μM", "result": 1.04}]}, {"smiles": "CN(C)CCC=C1c2ccccc2CCc2ccc(C(=O)NCCNC(=O)CCOCCOCCOCCOCCNC(=O)CCc3ccc4n3[B-](F)(F)[N+]3=C(c5ccc[nH]5)C=CC3=C4)cc21", "note": "[Amitriptyline-a-2-NB590]", "values": [{"measurement": "NanoBRET Fold Response", "setting": "FZD4; tracer at 0.1μM", "result": 1.01}, {"measurement": "NanoBRET Fold Response", "setting": "FZD4; tracer at 1μM", "result": 1.01}]}, {"smiles": "CN(C)CCC=C1c2ccccc2CCc2ccc(C(=O)NCCNC(=O)CCOCCOCCOCCOCCNC(=O)CCc3ccc4n3[B-](F)(F)[N+]3=C(c5ccc[nH]5)C=CC3=C4)cc21", "note": "[Amitriptyline-b-2-NB590]", "values": [{"measurement": "NanoBRET Fold Response", "setting": "FZD4; tracer at 0.1μM, listed as amitriptyline-b-2-NB590", "result": 1.12}, {"measurement": "NanoBRET Fold Response", "setting": "FZD4; tracer at 1μM, listed as amitriptyline-b-2-NB590", "result": 1.19}]}, {"smiles": "CN(CCC=C1c2ccccc2CCc2ccccc21)C(=O)CCOCCOCCOCCOCCNC(=O)CCc1ccc2n1[B-](F)(F)[N+]1=C(c3ccc[nH]3)C=CC1=C2", "note": "[Amitriptyline-e-2-NB590]", "values": [{"measurement": "NanoBRET Fold Response", "setting": "FZD4; tracer at 1μM", "result": 0.97}]}, {"smiles": "COc1ccc2c(n1)c(CCNC(C)=O)cn2CCNC(=O)CCc1ccc2n1[B-](F)(F)[N+]1=C(c3ccc[nH]3)C=CC1=C2", "note": "[Azamelatonin-1-NB590]", "values": [{"measurement": "NanoBRET Fold Response", "setting": "HRH1; 0.1μM tracer", "result": 1.14}, {"measurement": "NanoBRET Fold Response", "setting": "HRH1; 1μM tracer", "result": 1.14}, {"measurement": "NanoBRET Fold Response", "setting": "FZD4; 0.1μM tracer", "result": 0.91}, {"measurement": "NanoBRET Fold Response", "setting": "FZD4; 1μM tracer", "result": 0.91}, {"measurement": "NanoBRET Fold Response", "setting": "CHRM1; 0.1μM tracer", "result": 1.17}, {"measurement": "NanoBRET Fold Response", "setting": "CHRM1; 1μM tracer", "result": 0.93}, {"measurement": "NanoBRET Fold Response", "setting": "CHRM3; 0.1μM tracer", "result": 1.05}, {"measurement": "NanoBRET Fold Response", "setting": "CHRM3; 1μM tracer", "result": 0.96}]}, {"smiles": "COc1ccc2[nH]c(-c3ccc(CNC(=O)CCOCCOCCOCCOCCNC(=O)CCc4ccc5n4[B-](F)(F)[N+]4=C(c6ccc[nH]6)C=CC4=C5)cc3)c(CCNC(C)=O)c2n1", "note": "[AzomelatoninICO9-2-NB590]", "values": [{"measurement": "NanoBRET Fold Response", "setting": "HRH1; 0.1μM tracer", "result": 0.94}, {"measurement": "NanoBRET Fold Response", "setting": "HRH1; 1μM tracer", "result": 0.89}, {"measurement": "NanoBRET Fold Response", "setting": "FZD4; 0.1μM tracer", "result": 0.89}, {"measurement": "NanoBRET Fold Response", "setting": "FZD4; 1μM tracer", "result": 1.08}, {"measurement": "NanoBRET Fold Response", "setting": "CHRM1; 0.1μM tracer", "result": 1.20}, {"measurement": "NanoBRET Fold Response", "setting": "CHRM1; 1μM tracer", "result": 0.97}, {"measurement": "NanoBRET Fold Response", "setting": "CHRM3; 0.1μM tracer", "result": 0.95}, {"measurement": "NanoBRET Fold Response", "setting": "CHRM3; 1μM tracer", "result": 1.01}]}]}
